Experimental data taken from patent US20230293525A1, “METHODS AND COMPOSITIONS FOR THE TREATMENT OF VIRAL INFECTIONS” (priority 2020, published 2023).

System: minor spliceosome snRNAs including U11, U12, U6atac, and U4atac
Assay: qPCR of minor spliceosome snRNAs in HEK 293 cells treated with Tenovin 1
Format: cell-based
Details: 10 μM, incubated 24 hours, qPCR normalized to RN7SK, versus DMSO

`CC(=O)Nc1ccc(NC(=S)NC(=O)c2ccc(C(C)(C)C)cc2)cc1` [Tenovin 1] was tested, and the “levels of minor spliceosome snRNAs U11, U12, U6atac and U4atac (qPCR)” value was “successfully downregulates”.
